Patent US9408850B2, “Substituted indazole derivatives active as kinase inhibitors” (NERVIANO MEDICAL SCIENCES S.R.L., priority 2011, dated 2016)
Where a name gives a salt, the structure may show the parent alone.

How the values were obtained:
[1] = target: KIT cytoplasmic domain (GST fused protein) (Homo sapiens (Human), UniProt P10721); assay: Biochemical assay for inhibitors of KIT kinase activity; details: 4 nM pre activated enzyme, 4.4 microM ATP, 60 minutes at r.t.
Experimental: KIT cytoplasmic domain (aa 544-976end of the 976 aminoacid long full length sequence, accession number P10721 of UniProtKB/Swiss-Prot database) was cloned into pVL vector for expression in insect cells through the baculovirus system. The GST-KIT cytoplasmic domain has been expressed in Sf21 cells infected for 66 hrs at 27° C. The recombinant protein has been purified by affinity on GSH-sepharose and eluted with glutathione. […] General Principle-A specific peptidic substrate was trans-phosphorylated by the kinase in the presence of ATP traced with 33Pγ-ATP. At the end of the phosphorylation reaction, the not reacted ATP, cold and radioactive, was captured by an excess of dowex ion exchange resin that eventually settled by gravity to the bottom of the reaction plate. The supernatant was subsequently withdrawn and transferred into a counting plate that was then evaluated by β-counting. • ii. Dowex resin preparation-500 g of wet resin (SIGMA, custom prepared resin DOWEX 1×8 200-400 mesh, 2.5 Kg) were weighed out and diluted to 2 L in 150 mM sodium formate, pH 3.00. The resin was allowed to settle down overnight and then the supernatant was discarded. After three washes as above over a couple of days, the resin was allowed to settle and two volumes (with respect to the resin volume) were added of 150 mM sodium formate buffer. Biochemical Assay for Inhibitors of FLT3 Kinase Activity • i. Enzyme-The assay was performed using FLT3 cytoplasmic domain product and purified in house as GST fused protein. […] The peptide was purchased from American Peptide Company (Sunnyvale, Calif.). Biochemical Assay for Inhibitors of KIT Kinase Activity • i. Enzyme-The assay has been performed using KIT cytoplasmic domain product and purified in house as GST fused protein. […] NO: 2). The peptide was purchased from American Peptide Company (Sunnyvale, Calif.). Compound Testing • i. […] An automated station for serial dilutions (Biomek FX, Beckman) was used for producing 1:3 dilutions in 100% DMSO, from line A1 to A10, and for all the compounds in the column. […] The following dispensation into the plates plus 3 cycles of mixing, done by the robot itself, started the kinase reaction. At this point, the correct concentrations were restored for all the reagents. The robot incubated the plates for 60 minutes at r.t., and then stopped the reaction by pipetting 60 microL of dowex resin suspension into the reaction mix. In order to avoid tip clogging, wide bore tips were used to dispense the resin suspension. Three cycles of mixing were done immediately after the addition of the resin. Another mixing cycle was performed after all the plates were stopped, this time using normal tips: the plates were then allowed to rest for about one hour in order to allow resin sedimentation. […] Data Fitting-Data were analyzed by an internally customized version of the SW package “Assay Explorer” that provided sigmoidal fitting of the ten-dilutions curves for IC50 determination in the secondary assays/hit confirmation routines. Cell-Based Assays for Inhibitors of FLT3 Kinase Activity In vitro Cell Proliferation Assay for Inhibitors of FLT3 Kinase Activity

[2] = tested on: MOLM-13 cells, bearing a FLT3-ITD mutation; assay: In vitro cell proliferation assay (CellTiter-Glo), MOLM-13; assay type: cell-based; details: Homo sapiens, MOLM-13, 72 h
Experimental: (§1) The human acute leukemia MOLM-13 AND MV-4-11 cells, bearing a FLT3-ITD mutation, were seeded (5000 cells/well) in white 384 well-plates in complete medium (RPMI 1640 plus 10% Fetal bovine serum) and treated with compounds dissolved in 0.1% DMSO, 24 h after seeding. The cells were incubated at 37° C. and 5% CO2 and after 72 h the plates were processed using CellTiter-Glo assay (Promega) following the manufacturer's instruction.
(§2) CellTiter-Glo is a homogenous method based on the quantification of the ATP present, an indicator of metabolitically active cells. ATP was quantified using a system based on luciferase and D-luciferin resultant into light generation. The luminescent signal was proportional to the number of cells present in culture.
(§3) Briefly, 25 microL/well reagent solution were added to each well and, after 5 minutes shaking, microplates were read by Envision (PerkinElmer) luminometer. Inhibitory activity was evaluated comparing treated versus control data using Symyx Assay Explorer (Symyx Technologies Inc.) program. IC50 was calculated using sigmoidal interpolation curve.

[3] = tested on: MV-4-11 cells, bearing a FLT3-ITD mutation; assay: In vitro cell proliferation assay (CellTiter-Glo), MV-4-11; assay type: cell-based; details: Homo sapiens, MV4-11, MV-4-11, 72 h
Experimental: as §1, §2, §3

[4] = target: FLT3 cytoplasmic domain (GST fused protein) (Homo sapiens (Human), UniProt P36888); assay: Biochemical assay for inhibitors of FLT3 kinase activity; details: 2 nM pre activated enzyme, 254 microM ATP, 60 minutes at r.t.
Sequence of FLT3 cytoplasmic domain (GST fused protein) (P36888 564-993): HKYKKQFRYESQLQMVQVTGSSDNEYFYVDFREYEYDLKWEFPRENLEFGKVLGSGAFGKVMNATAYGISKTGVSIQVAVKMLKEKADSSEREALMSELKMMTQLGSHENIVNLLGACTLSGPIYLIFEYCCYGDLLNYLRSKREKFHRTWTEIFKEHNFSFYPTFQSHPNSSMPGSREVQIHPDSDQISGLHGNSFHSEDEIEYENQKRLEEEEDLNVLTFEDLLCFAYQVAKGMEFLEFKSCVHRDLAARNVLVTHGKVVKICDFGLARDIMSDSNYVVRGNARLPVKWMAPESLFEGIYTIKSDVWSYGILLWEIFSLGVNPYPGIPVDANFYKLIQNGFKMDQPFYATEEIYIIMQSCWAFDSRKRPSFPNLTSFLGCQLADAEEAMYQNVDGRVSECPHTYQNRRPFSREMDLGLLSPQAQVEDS
Experimental: FLT3 cytoplasmic domain (aa 564-993end of the 993 aminoacid long full length sequence, accession number P36888 of UniProtKB/Swiss-Prot. database) was amplified by PCR starting from a testis cDNA library and then cloned into pVL vector for expression in insect cells through the baculovirus system. The GST-FLT3 cytoplasmic domain has been expressed in Sf21 cells infected for 72 hours at 27° C. The recombinant protein has been purified by affinity on GSH-sepharose and eluted with glutathione. A further purification step has been performed on heparine sepharose. […] General Principle-A specific peptidic substrate was trans-phosphorylated by the kinase in the presence of ATP traced with 33Pγ-ATP. At the end of the phosphorylation reaction, the not reacted ATP, cold and radioactive, was captured by an excess of dowex ion exchange resin that eventually settled by gravity to the bottom of the reaction plate. The supernatant was subsequently withdrawn and transferred into a counting plate that was then evaluated by β-counting. • ii. Dowex resin preparation-500 g of wet resin (SIGMA, custom prepared resin DOWEX 1×8 200-400 mesh, 2.5 Kg) were weighed out and diluted to 2 L in 150 mM sodium formate, pH 3.00. The resin was allowed to settle down overnight and then the supernatant was discarded. After three washes as above over a couple of days, the resin was allowed to settle and two volumes (with respect to the resin volume) were added of 150 mM sodium formate buffer. Biochemical Assay for Inhibitors of FLT3 Kinase Activity • i. Enzyme-The assay was performed using FLT3 cytoplasmic domain product and purified in house as GST fused protein. […] NO: 1). The peptide was purchased from American Peptide Company (Sunnyvale, Calif.). Biochemical Assay for Inhibitors of KIT Kinase Activity • i. Enzyme-The assay has been performed using KIT cytoplasmic domain product and purified in house as GST fused protein. […] NO: 2). The peptide was purchased from American Peptide Company (Sunnyvale, Calif.). Compound Testing • i. […] An automated station for serial dilutions (Biomek FX, Beckman) was used for producing 1:3 dilutions in 100% DMSO, from line A1 to A10, and for all the compounds in the column. […] The following dispensation into the plates plus 3 cycles of mixing, done by the robot itself, started the kinase reaction. At this point, the correct concentrations were restored for all the reagents. The robot incubated the plates for 60 minutes at r.t., and then stopped the reaction by pipetting 60 microL of dowex resin suspension into the reaction mix. In order to avoid tip clogging, wide bore tips were used to dispense the resin suspension. Three cycles of mixing were done immediately after the addition of the resin. Another mixing cycle was performed after all the plates were stopped, this time using normal tips: the plates were then allowed to rest for about one hour in order to allow resin sedimentation. […] Data Fitting-Data were analyzed by an internally customized version of the SW package “Assay Explorer” that provided sigmoidal fitting of the ten-dilutions curves for IC50 determination in the secondary assays/hit confirmation routines. Cell-Based Assays for Inhibitors of FLT3 Kinase Activity In vitro Cell Proliferation Assay for Inhibitors of FLT3 Kinase Activity

Sequence of KIT cytoplasmic domain (GST fused protein) (P10721 544-976): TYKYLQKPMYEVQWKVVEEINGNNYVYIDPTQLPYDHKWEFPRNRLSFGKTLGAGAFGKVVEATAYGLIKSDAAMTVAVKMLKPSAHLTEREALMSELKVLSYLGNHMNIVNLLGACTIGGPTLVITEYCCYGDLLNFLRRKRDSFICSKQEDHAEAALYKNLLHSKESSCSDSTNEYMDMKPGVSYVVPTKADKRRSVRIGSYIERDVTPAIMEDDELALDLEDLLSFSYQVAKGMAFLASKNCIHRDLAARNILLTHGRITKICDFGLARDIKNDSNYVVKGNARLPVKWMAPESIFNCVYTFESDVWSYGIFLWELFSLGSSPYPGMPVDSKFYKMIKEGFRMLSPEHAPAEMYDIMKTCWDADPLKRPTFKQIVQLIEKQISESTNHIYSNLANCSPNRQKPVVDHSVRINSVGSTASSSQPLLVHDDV

SMILES | IC50 [1] | IC50 [4] | IC50 [2] | IC50 [3]
CN(c1ccc(C(=O)Nc2n[nH]c3cc(OCCOCc4ccccc4)ccc23)cc1)C1CC[N+](C)([O-])CC1 (centres unmarked) [Cpd. 41, N-[6-(2-Benzyloxy-ethoxy)-1H-indazol-3-yl]-4-[methyl-(1-methyl-1-oxy-piperidin-4-yl)-amino]-benzamide] | 180 nM | 52 nM | < 50 nM | < 50 nM
O=C(Nc1n[nH]c2cc(OCCOCc3ccccc3)ccc12)c1ccc(N2CCOCC2)cc1 [Cpd. 24, N-[6-(2-Benzyloxy-ethoxy)-1H-indazol-3-yl]-4-morpholin-4-yl-benzamide] | 260 nM | 162 nM | < 50 nM | < 50 nM
CN1CCN(c2ccc(C(=O)Nc3n[nH]c4cc(OCCOCc5ccc(C(F)(F)F)cc5)ccc34)cc2)CC1 [Cpd. 33, 4-(4-Methyl-piperazin-1-yl)-N-{6-[2-(4-trifluoromethyl-benzyloxy)-ethoxy]-1H-indazol-3-yl}-benzamide] | < 50 nM | < 50 nM | – | –
CN1CCN(c2ccc(C(=O)Nc3n[nH]c4cc(Oc5ccccc5)ccc34)cc2)CC1 [Cpd. 2, 4-(4-Methyl-piperazin-1-yl)-N-(6-phenoxy-1H-indazol-3-yl)-benzamide] | 172 nM | 1130 nM | – | –
CN1CCN(c2ccc(C(=O)Nc3n[nH]c4cc(OCc5cccc(Oc6ccccc6)c5)ccc34)cc2)CC1 [Cpd. 5, 4-(4-Methyl-piperazin-1-yl)-N-[6-(3-phenoxy-benzyloxy)-1H-indazol-3-yl]-benzamide] | 2620 nM | 1170 nM | – | –
CN1CCN(c2cccc(C(=O)Nc3n[nH]c4cc(OCCOCc5ccccc5)ccc34)c2)CC1 [Cpd. 29, N-[6-(2-Benzyloxy-ethoxy)-1H-indazol-3-yl]-3-(4-methyl-piperazin-1-yl)-benzamide hydrochloride] | 1080 nM | 635 nM | – | –
CN(C)Cc1ccc(C(=O)Nc2n[nH]c3cc(OCCOCc4ccccc4)ccc23)cc1 [Cpd. 21, N-[6-(2-Benzyloxy-ethoxy)-1H-indazol-3-yl]-4-dimethylaminomethyl-benzamide] | 134 nM | 104 nM | – | < 50 nM
CN1CCN(c2ccc(C(=O)Nc3n[nH]c4cc(OC5CCN(Cc6ccccc6)CC5)ccc34)cc2)CC1 [Cpd. 6, N-[6-(1-Benzyl-piperidin-4-yloxy)-1H-indazol-3-yl]-4-(4-methyl-piperazin-1-yl)-benzamide] | 6890 nM | 248 nM | – | –
C[N+]1([O-])CCN(c2ccc(C(=O)Nc3n[nH]c4cc(OCCOCc5ccc(C(F)(F)F)cc5)ccc34)cc2)CC1 [Cpd. 42, 4-(4-Methyl-4-oxy-piperazin-1-yl)-N-{6-[2-(4-trifluoromethyl-benzyloxy)-ethoxy]-1H-indazol-3-yl}-benzamide hydrochloride] | 55 nM | < 50 nM | – | –

More lines, main results first:

IC50 [1] | IC50 [4] | SMILES | IC50 [2] | IC50 [3]
1390 nM | 414 nM | CC(C)(C)OC(=O)N1CCN(c2ccc(C(=O)Nc3n[nH]c4cc(OCCOCc5ccccc5)ccc34)cc2)CC1 [Cpd. 18, 4-{4-[6-(2-Benzyloxy-ethoxy)-1H-indazol-3-ylcarbamoyl]-phenyl}-piperazine-1-carboxylic acid tert-butyl ester] | – | –
2800 nM | 428 nM | CN1CCN(c2ccc(C(=O)Nc3n[nH]c4cc(OCc5ccccc5)ccc34)cc2)CC1 [Cpd. 1, N-(6-Benzyloxy-1H-indazol-3-yl)-4-(4-methyl-piperazin-1-yl)-benzamide] | – | –
713 nM | 1500 nM | CN1CCN(c2ccc(C(=O)Nc3n[nH]c4cc(Oc5cccc(OCc6ccccc6)c5)ccc34)cc2)CC1 [Cpd. 9, N-[6-(3-Benzyloxy-phenoxy)-1H-indazol-3-yl]-4-(4-methyl-piperazin-1-yl)-benzamide] | – | –
> 10000 nM | 3180 nM | CN(C)c1ccc(C(=O)Nc2n[nH]c3cc(OCc4ccccc4)ccc23)cc1 [Ref. Compound, reference compound] | – | –
146 nM | 62 nM | CN(C)CCCN(C)c1ccc(C(=O)Nc2n[nH]c3cc(OCCOCc4ccccc4)ccc23)cc1 [Cpd. 17, N-[6-(2-Benzyloxy-ethoxy)-1H-indazol-3-yl]-4-[(3-dimethylamino-propyl)-methyl-amino]-benzamide] | – | –
956 nM | < 50 nM | CN1CCN(c2ccc(C(=O)Nc3n[nH]c4cc(OCCOc5ccccc5)ccc34)cc2)CC1 [Cpd. 10, 4-(4-Methyl-piperazin-1-yl)-N-[6-(2-phenoxy-ethoxy)-1H-indazol-3-yl]-benzamide] | – | –
76 nM | < 50 nM | CN(C)C1CCN(c2ccc(C(=O)Nc3n[nH]c4cc(OCCOCc5ccccc5)ccc34)cc2)CC1 [Cpd. 15, N-[6-(2-Benzyloxy-ethoxy)-1H-indazol-3-yl]-4-(4-dimethylamino-piperidin-1-yl)-benzamide] | – | –
> 10000 nM | 974 nM | CN1CCN(c2ccc(C(=O)Nc3n[nH]c4cc(Oc5ccc(OCc6ccccc6)cc5)ccc34)cc2)CC1 [Cpd. 4, N-[6-(4-Benzyloxy-phenoxy)-1H-indazol-3-yl]-4-(4-methyl-piperazin-1-yl)-benzamide] | – | –
106 nM | < 50 nM | CN(C)CCN(C)c1ccc(C(=O)Nc2n[nH]c3cc(OCCOCc4ccccc4)ccc23)cc1 [Cpd. 16, N-[6-(2-Benzyloxy-ethoxy)-1H-indazol-3-yl]-4-[(2-dimethylamino-ethyl)-methyl-amino]-benzamide] | – | –
